Assay results as given in US5278068A, “Biologically pure culture of Cytospora useful as angiotensin II antagonist” (Merck & Co., Inc., priority 1992, dated 1994).
Several values for one entry are separate records, joined by “and”; a condition that tells them apart may be missing. Equal entries are not always repeated.

How the values were obtained:
[1] = target: T1, angiotensin II receptor, site 2 (rat adrenal membranes) (Rattus norvegicus, UniProt P35351); assay: Receptor Assay using Rat Adrenal Gland Preparation (125I-Angiotensin II binding); details: at site 2, 37° C., 90 minutes
T1 construct: Adrenal membranes for the receptor assay were readied first by placing cleaned, whole adrenal glands in microcentrifuge tubes; from tissue; host or cells: rat adrenal gland membranes
T1 sequence (P35351 1-363): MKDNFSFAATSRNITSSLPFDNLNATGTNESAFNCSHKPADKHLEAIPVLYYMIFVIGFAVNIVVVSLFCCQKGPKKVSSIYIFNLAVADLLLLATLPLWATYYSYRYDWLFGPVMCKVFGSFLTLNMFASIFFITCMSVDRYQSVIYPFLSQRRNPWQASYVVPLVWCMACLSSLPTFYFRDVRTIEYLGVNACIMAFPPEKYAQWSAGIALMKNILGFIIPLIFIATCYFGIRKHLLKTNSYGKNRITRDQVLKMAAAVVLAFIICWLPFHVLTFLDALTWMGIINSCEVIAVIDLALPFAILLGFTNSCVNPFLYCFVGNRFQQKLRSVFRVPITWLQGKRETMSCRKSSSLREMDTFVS
Source text: Angiotensin II (AII) is a powerful arterial vasoconstrictor, and it exerts its action by interacting with specific receptors present on cell membranes. The compounds produced by Cytospora sp. are competitive antagonists of AII at receptor sites. The usefulness of compounds as AII antagonists may be determined from the results of certain receptor binding assays. The initial assay is that using rat adrenal glands and the results of this assay are described herein.
Adrenal membranes for the receptor assay were readied first by placing cleaned, whole adrenal glands in microcentrifuge tubes (20 glands per tube), and freezing and storing under liquid nitrogen. As needed, a microcentrifuge tube of adrenal glands was homogenized in 20 ml 50 mM tris (hydroxymethyl)aminomethane hydrochloride (Tris-HCl) pH 7.7 and centrifuged at 20,000 rpm for 15 minutes at 4° C. […]
For the assay, the adrenal membrane preparation in one vial was resuspended in 30 ml of 100 mM Tris-HCl pH 7.4 with 5 mM MgCl2, 0.2% bovine serum albumin and 0.2 mg/ml bacitracin. […] The vials are counted with a gamma counter for one minute and percent inhibition determined from counts/min (CPM) as follows: [formula] The IC50 is determined by plotting percent inhibition v. concentration of compound tested.

[2] = system: rats; details: rat; known activity; cited from earlier work
[3] = system: male Sprague-Dawley rats; details: rat; known activity; cited from earlier work

For `CCCCCC1=C(C=O)C2OC(C)(C)C(O)CC23OC3C1=O` (stereo not drawn) [Compound A], the IC50 [1] was 1620 to 3240 nM and 1000 to 2000 nM.

For `CNC(=O)Oc1ccc2c(c1)[C@]1(C)CCN(C)[C@@H]1N2C` [physostigmine], the “activity in passive avoidance assay” value [2] is listed as “known to be active”.

For `CN1C(=O)CN=C(c2ccccc2)c2cc(Cl)ccc21` [Diazepam], the “activity in conditioned emotional response assay” value [3] is listed as “active in this assay”.
